{"source": "paper PMC11352409", "about": "“Subtype-Specific Ligand Binding and Activation Gating in Homomeric and Heteromeric P2X Receptors” (Biomolecules, 2024)", "target": "T1, human P2X2/3 receptors (Homo sapiens, UniProt P56373+Q9UBL9)", "T1 construct": "expressed in transfected cells", "T1 sequence (Q9UBL9 1-404 isoform Q9UBL9-2)": "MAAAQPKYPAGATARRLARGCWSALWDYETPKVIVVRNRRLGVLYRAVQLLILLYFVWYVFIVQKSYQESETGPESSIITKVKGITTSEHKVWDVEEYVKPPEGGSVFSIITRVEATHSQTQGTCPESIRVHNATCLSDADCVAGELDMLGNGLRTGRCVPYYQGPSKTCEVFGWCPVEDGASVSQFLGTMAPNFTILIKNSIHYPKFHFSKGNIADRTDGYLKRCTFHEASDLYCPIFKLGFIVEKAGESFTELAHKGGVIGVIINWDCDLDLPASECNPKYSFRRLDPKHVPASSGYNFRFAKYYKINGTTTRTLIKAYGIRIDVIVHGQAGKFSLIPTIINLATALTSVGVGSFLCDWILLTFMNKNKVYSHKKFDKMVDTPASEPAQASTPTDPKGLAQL", "T1 sequence (P56373 1-397)": "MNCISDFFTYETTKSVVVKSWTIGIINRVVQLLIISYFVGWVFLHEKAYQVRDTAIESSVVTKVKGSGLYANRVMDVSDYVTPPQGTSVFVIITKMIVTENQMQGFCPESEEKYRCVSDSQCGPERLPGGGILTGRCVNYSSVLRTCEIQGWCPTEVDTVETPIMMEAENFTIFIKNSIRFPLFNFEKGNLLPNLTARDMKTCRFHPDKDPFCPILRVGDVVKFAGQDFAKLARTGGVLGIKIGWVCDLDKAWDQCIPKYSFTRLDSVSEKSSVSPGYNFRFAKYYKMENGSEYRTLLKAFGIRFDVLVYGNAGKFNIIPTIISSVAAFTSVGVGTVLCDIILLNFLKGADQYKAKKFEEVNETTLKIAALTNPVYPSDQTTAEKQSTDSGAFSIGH", "test": "Confocal binding versus activation of fATP at hP2X2/3 in HEK293 cells", "conditions": "hP2X2/3, activation rescaled to value at maximal concentration", "protocol": "For the detection of ligand binding, the cells were incubated with the fluorescent ATP derivatives in chambered coverslips or 96-well plates with cover-slip bottoms. The surface was coated with 0.1 mg/mL of poly-L-lysine for 12 h and washed twice with PBS before seeding the cells at […] density. The cells were suspended 24 h after induction and allowed to settle for two hours before being utilised for the measurements. The solutions were freshly prepared before each experiment. The bulk solution was counter-stained with the red fluorescence dye Dy647. Each confocal voxel covering the cell membrane contained both the signal from the bound ligand and the signal from ligands in the bulk solution. This additional signal, e.g., the fraction of the bulk solution inside a voxel, varied from pixel to pixel and can hardly be described theoretically.\nBecause the difference in image noise contributed within both the bulk solution and the cells, the cell–bulk interfaces were selected using a Sobel operator [31] and appropriate filters/thresholds on the reference fluorophore signal. Note that only cell–bulk boundaries and not cell–cell boundaries were included in this approach. The method was described in detail previously.\nThe concentration–binding relationships were normalised to their maximum relative fluorescence intensities at a saturating fATP or α,βMe-fATP concentration. […]", "data": [{"smiles": "COCC[N+]1=C(C=CC=C2N(CCCCCC(=O)NCCCCCCSc3nc(N)c4ncn(C5OC(COP(=O)(O)OP(=O)(O)OP(=O)(O)O)C(O)C5O)c4n3)c3ccc(S(=O)(=O)O)cc3C2(C)C)C(C)(C)c2cc(S(=O)(=O)[O-])ccc21", "note": "(stereo not shown) [fATP, 2-[DY-547P1]-AHT-ATP]", "values": [{"measurement": "Concentration at which normalised concentration-activation and concentration-binding curves intersect", "result": "approximately 0.5 µM"}]}]}
